US20050187240A1, “Aaptamine and isoaaptamine and structural modifications thereof” (The Arizona Board of Regents, Acting for and on behalf of …, priority 2004, published 2005)
Counter-ions that a name gives are not always drawn. Like-named read-outs stand apart in the source and are kept apart here.

Key:
Escherichia coli = assay: Broth microdilution susceptibility assay, Escherichia coli; format: cell-based
colon KM 20L2 = assay: Cancer cell growth inhibition, colon KM 20L2; format: cell-based, human; settings: Homo sapiens
Method in brief: (§1)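 Growth inhibition in murine P388 leukemia and human cancer cell line panels (Arizona State University minipanel and NCI 60-cell screen).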

[1] = tested on: Stenotrophomonas maltophilia; assay: Broth microdilution susceptibility assay, Stenotrophomonas maltophilia; format: cell-based; settings: for MIC: read-out: Range of minimum inhibitory concentration
CNS SF-268 = assay: Cancer cell growth inhibition, CNS SF-268; format: cell-based, human; settings: Homo sapiens
Procedure: (§2) Biology The cancer cell growth inhibitory properties were examined using the murine P388 lymphocytic leukemia cell line and a selection of human cancer cell lines.
(§3) All of the synthetic products were evaluated against a minipanel of human cancer cell lines, the murine P388 lymphocytic leukemia cell line and a selection of microorganisms.

Enterobacter cloacae = assay: Broth microdilution susceptibility assay, Enterobacter cloacae; format: cell-based
Cryptococcus neoformans = assay: Broth microdilution susceptibility assay, Cryptococcus neoformans; format: cell-based
Staphylococcus aureus = assay: Broth microdilution susceptibility assay, Staphylococcus aureus; format: cell-based
[2] = Antimicrobial activity in the presence of human serum; format: cell-based
Excerpt: The antimicrobial activity of phenols 15 and 18 in the presence of human serum was also investigated.

Enterococcus faecalis = assay: Broth microdilution susceptibility assay, Enterococcus faecalis; format: cell-based
prostrate DU-145 = assay: Cancer cell growth inhibition, prostate DU-145; format: cell-based, human; settings: Homo sapiens
Procedure: as §2, §3

breast MCF-7 = assay: Cancer cell growth inhibition, breast MCF-7; format: cell-based, human; settings: Homo sapiens
Procedure: as §2, §3

Candida albicans = assay: Broth microdilution susceptibility assay, Candida albicans; format: cell-based
pancreas BXPC-3 = assay: Cancer cell growth inhibition, pancreas BXPC-3; format: cell-based, human; settings: Homo sapiens
Procedure: as §2, §3

Micrococcus luteus = assay: Broth microdilution susceptibility assay, Micrococcus luteus; format: cell-based
Neisseria gonorrhoeae = assay: Broth microdilution susceptibility assay, Neisseria gonorrhoeae; format: cell-based
lung NCI-H460 = assay: Cancer cell growth inhibition, lung NCI-H460; format: cell-based, human; settings: Homo sapiens
Method in brief: as §1

tubulin = assay: Tubulin polymerization (assembly) inhibition; format: biochemical; settings: b62 series; read-out: IC50 for inhibition of extent of tubulin assembly
Procedure: Only minimal inhibitory activity was observed. While compounds 15 and 8 did inhibit the rate of polymerization by over 50% at 40 μM (the highest concentration examined), an IC50 value for inhibition of assembly extent was obtained only for compound 18. […] Thus, it seems unlikely that the cytotoxic mechanism for these aaptamine analogs derives from an interaction with tubulin.
A number of the aaptamine derivatives whose synthesis is described here were examined for potential effects on tubulin assembly. These were compounds 2, 4, 5, 9a-c, and 10a-d. […] For comparison, in experiments performed contemporaneously, the potent colchicine site drug combretastatin A-4 yielded an IC50 value of about 2 μM.

Streptococcus pneumoniae = assay: Broth microdilution susceptibility assay, Streptococcus pneumoniae; format: cell-based
[3] = tested on: murine P388 lymphocytic leukemia cell line; assay: Cancer cell growth inhibition, murine P388 lymphocytic leukemia cell line; format: cell-based; settings: Mus musculus
Method in brief: as §1

Vero cells = settings: cited from earlier work
PKC alpha [4] = target: T1, PKC alpha (Homo sapiens, UniProt P17252); assay: Inhibition of PKC catalytic activity (peptide substrate phosphorylation); format: biochemical; settings: for inhibition at 30 µM: read-out: percent inhibition of PKC catalytic activity
Excerpt: We further evaluated the ability of the derivatives to inhibit PKC catalytic activity. […] Inhibition by 10c was 19.5±7.6% and inhibition by 4, 5, and 9a, b, c was 6% or less (all values are mean±SEM, three experiments). […] In both cases, the inhibition curves were steeper than predicted for a competitive inhibitor, consistent with a complicated mechanism of action (Hill coefficients for 10a and 10b of 1.5±0.1 and 2.0±0.5, respectively).

[5] = tested on: herpes simplex virus type 1 (HSV-1); settings: cited from earlier work
PKC alpha [6] = target: T1, PKC alpha; assay: Inhibition of [3H]phorbol 12,13-dibutyrate binding to PKC alpha; settings: read-out: inhibition of [3H]phorbol 12,13-dibutyrate binding to PKC alpha
Method in brief: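 Compounds tested at a single 30 μM concentration for displacement of [3H]phorbol 12,13-dibutyrate binding to PKC alpha, reported as percent inhibition. Triplicate measurements in one or three independent experiments depending on compound.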

[7] = tested on: genes whose products are involved in DNA synthesis; assay: cDNA microarray assay with THP-1 cells; format: cell-based, human; settings: THP-1 cells treated for 23 hours with 0.25 μg/ml
[8] = tested on: Mycobacterium tuberculosis H37Rv; assay: Microplate Alamar Blue Assay, Mycobacterium tuberculosis; format: cell-based; settings: 6.25 μg/ml
[9] = tested on: THP-1 human monocytic leukemia cells; assay: Flow cytometry cell cycle analysis of THP-1 cells; format: cell-based; settings: THP-1 cells pretreated for 24 hours with 0.25 μg/ml
[10] = read-out: Range of minimum inhibitory concentration
[11] = Table 4, read-out: Range of minimum inhibitory concentration
[12] = Table 5, colon KM 20L2, read-out: Cancer Cell Line Results ED50
[13] = Table 5, CNS SF-268, read-out: Cancer Cell Line Results ED50
[14] = DU-145, Table 5, prostate DRU-145, read-out: Cancer Cell Line Results ED50
[15] = MCF7, Table 5, breast MCF-7, read-out: Cancer Cell Line Results ED50
[16] = Table 5, pancreas BXPC-3, read-out: Cancer Cell Line Results ED50
[17] = Table 5, lung NCI-H460, read-out: Cancer Cell Line Results ED50
[18] = Table 5, leukemia P388, read-out: Cancer Cell Line Results ED50

## COc1cc2ccnc3c2c(c1O)NC=C3 [Compound 18, 9-Demethylaaptamine hydrobromide]
Escherichia coli; [10]
  MIC: 32 to 64 µg/mL
Colon KM 20L2; KM-20L2, read-out: Cancer cell growth inhibitory ED50
  IC50: 1.7 µg/mL
[1]
  MIC: > 64 µg/mL
CNS SF-268; SF-268, read-out: Cancer cell growth inhibitory ED50
  IC50: 1.4 µg/mL
Enterobacter cloacae; [10]
  MIC: > 64 µg/mL
Cryptococcus neoformans; [10]
  MIC: 32 µg/mL
Staphylococcus aureus; [10]
  MIC: 16 µg/mL
[2]
  minimum inhibitory concentrations in the presence of human serum versus absence of serum: identical or one 2-fold dilution lower
Enterococcus faecalis; [10]
  MIC: 8 to 32 µg/mL
Prostrate DU-145; DU-145, read-out: Cancer cell growth inhibitory ED50
  IC50: 1.8 µg/mL
Breast MCF-7; MCF7, read-out: Cancer cell growth inhibitory ED50
  IC50: 0.66 µg/mL
Candida albicans; [10]
  MIC: 64 µg/mL
Pancreas BXPC-3; BXPC-3, read-out: Cancer cell growth inhibitory ED50
  IC50: 1.6 µg/mL
Micrococcus luteus; [10]
  MIC: 8 µg/mL
Neisseria gonorrhoeae; [10]
  MIC: > 0.5 µg/mL
Lung NCI-H460; NCI-H460, read-out: Cancer cell growth inhibitory ED50
  IC50: 2 µg/mL
tubulin
  IC50: 37 ± 4 µM
Streptococcus pneumoniae; [10]
  MIC: 2 to 4 µg/mL
[3]; P388, read-out: Cancer cell growth inhibitory ED50
  IC50: 0.22 µg/mL

## COc1cc2c3c(ccnc3c1OC)N(C)C=C2 [Compound 4, 4-Methylaaptamine]
Escherichia coli; [11]
  MIC: > 64 µg/mL
Colon KM 20L2; Table 3, colon KM 20L2, read-out: Cancer cell growth inhibitory ED50
  IC50: > 10 µg/mL
Colon KM 20L2; [12]
  IC50: > 10 µg/mL
[1]; Table 4, Stenotrophomonas maltophil
  MIC: > 64 µg/mL
CNS SF-268; Table 3, CNS SF-268, read-out: Cancer cell growth inhibitory ED50
  IC50: > 10 µg/mL
CNS SF-268; [13]
  IC50: > 10 µg/mL
Enterobacter cloacae; [11]
  MIC: > 64 µg/mL
Cryptococcus neoformans; [11]
  MIC: > 64 µg/mL
Staphylococcus aureus; [11]
  MIC: > 64 µg/mL
Enterococcus faecalis; [11]
  MIC: > 64 µg/mL
Prostrate DU-145; [14]
  IC50: > 10 µg/mL
Prostrate DU-145; Table 3, prostrate DU-145, read-out: Cancer cell growth inhibitory ED50
  IC50: > 10 µg/mL
Breast MCF-7; MCF7, Table 3, breast MCF-7, read-out: Cancer cell growth inhibitory ED50
  IC50: > 10 µg/mL
Breast MCF-7; [15]
  IC50: > 10 µg/mL
Vero cells
  toxicity to Vero cells: low toxicity
PKC alpha [4]; 30 μM compound, 1 μM phorbol 12-myristate 13-acetate, 100 μg/ml phospholipid, mean±SEM, three experiments
  inhibition at 30 µM: ≤ 6%
Candida albicans; [11]
  MIC: > 64 µg/mL
[5]
  antiviral activity against HSV-1: potent antiviral activity
Pancreas BXPC-3; Table 3, pancreas BXPC-3, read-out: Cancer cell growth inhibitory ED50
  IC50: > 10 µg/mL
Pancreas BXPC-3; [16]
  IC50: > 10 µg/mL
Micrococcus luteus; [11]
  MIC: > 64 µg/mL
Neisseria gonorrhoeae; [11]
  MIC: > 64 µg/mL
Lung NCI-H460; Table 3, lung NCI-H460, read-out: Cancer cell growth inhibitory ED50
  IC50: > 10 µg/mL
Lung NCI-H460; [17]
  IC50: > 10 µg/mL
Streptococcus pneumoniae; [11]
  MIC: > 64 µg/mL
[3]; P388, Table 3, leukemia P-388, read-out: Cancer cell growth inhibitory ED50
  IC50: > 10 µg/mL
[3]; [18]
  IC50: > 10 µg/mL

## COc1cc2c3c(cc[n+](Cc4ccccc4)c3c1OC)N(Cc1ccccc1)C=C2.[Cl-] [Compound 10a, 1,4-Bis-(benzyl)-8,9-dimethoxy-4H-benzo[de][1,6]naphthyridin-1-ium chloride]
Escherichia coli; Table 6
  Range of minimum inhibitory concentration: 8 µg/mL
Colon KM 20L2; [12]
  IC50: 0.055 µg/mL
[1]; Table 6
  Range of minimum inhibitory concentration: * (no inhibition at 64 μg/mL)
PKC alpha [6]
  inhibition at 30 µM: 11.8%
[7]
  down-regulation of several genes involved in DNA synthesis: 5- to 7 fold
CNS SF-268; [13]
  IC50: 0.064 µg/mL
Enterobacter cloacae; Table 6
  Range of minimum inhibitory concentration: * (no inhibition at 64 μg/mL)
Cryptococcus neoformans; Table 6
  Range of minimum inhibitory concentration: * (no inhibition at 64 μg/mL)
Staphylococcus aureus; Table 6
  Range of minimum inhibitory concentration: * (no inhibition at 64 μg/mL)
Enterococcus faecalis; Table 6
  Range of minimum inhibitory concentration: 32 µg/mL
Prostrate DU-145; [14]
  IC50: 0.036 µg/mL
Breast MCF-7; [15]
  IC50: 0.27 µg/mL
PKC alpha [4]
  Hill coefficient of PKC inhibition curve: 1.5±0.1
  IC50: 20.8 ± 2.5 µM
  inhibition at 30 µM: 71.1 ± 4.5%
[8]
  inhibition at 6.25 µg/mL: 98%
Candida albicans; Table 6
  Range of minimum inhibitory concentration: * (no inhibition at 64 μg/mL)
Pancreas BXPC-3; [16]
  IC50: 0.061 µg/mL
Micrococcus luteus; Table 6
  Range of minimum inhibitory concentration: 0.5 to 2 µg/mL
Neisseria gonorrhoeae; Table 6
  Range of minimum inhibitory concentration: 0.25 µg/mL
[9]
  cell cycle effect (propidium iodide flow cytometry): accumulation of cells in the GI phase
other
  melting point: 175 °C (dec.)
Lung NCI-H460; [17]
  IC50: 0.26 µg/mL
Streptococcus pneumoniae; Table 6
  Range of minimum inhibitory concentration: 32 µg/mL
[3]; [18]
  IC50: 0.234 µg/mL
